Legend:
[1] = system: ovalbumin induced bronchospasm mediated by endogenous products of the lipoxygenase oxidation of arachidonic acid; assay: in vivo inhibition of ovalbumin induced bronchospasm in guinea pigs by endogenous mediators; design: species or system guinea pig (male Hartley); settings: 50 mg/kg intraduodenal, 10 minutes before ovalbumin challenge, indomethacin and chlorpheniramine pretreated
Description: The assay of this Example measures the in vivo ability of the compounds of the invention to inhibit the bronchospasm induced in guinea pigs by endogenous mediators of the bronchoconstriction.
The assay is carried out as follows:
Male Hartley strain guinea pigs weighing 350-600 g are sensitized to ovalbumin (OA) (5 mg i.p. and 5 mg s.c.) on day 0. Three to five weeks later, the animals are anesthetized with pentobarbital sodium (50 mg/kg, i.p.). The jugular vein is cannulated for injection of drugs and the carotid artery for monitoring blood pressure. The trachea is cannulated for artificial ventilation by miniature Staring pump and for indirect measurement of respiratory volume changes as described, infra. Additional pentobarbital sodium (15 mg/kg, i.v.) is administered to arrest spontaneous respiration. A cyclooxygenase inhibitor, indomethacin (10 mg/kg in tris buffer, i.v. at 9 min.) is administered to shunt arachidonic metabolism to lipoxygenase pathways. One minute later, chlorpheniramine (1.0 mg/kg in saline, i.v.) is given to attenuate the histaminic component of anaphylactic bronchoconstriction. Test drugs are administered either intravenously, intraduodenally or by aerosol at 2 or 10 minutes before antigen challenge. Anaphylactic bronchoconstriction is induced by administration of aerosolized OA (1%). Aerosols of OA or soluble drug are produced in-line for 10 seconds only by actuation of an ultrasonic nebulizer (Monaghan). Aerosolized drug dosage is expressed in terms of solution concentration and by a fixed aerosol exposure time (approximately10 seconds). Control animals receive saline in place of drug.
(§1) Respiratory volume changes are determined by a calibrated piston whose travel is recorded, via a linear transducer, on a Beckman Dynograph recorder. Maximal bronchoconstrictor volume is determined by clamping off the trachea at the end of the experiment. Overflow volumes at minutes 1, 3 and 5 are obtained from the recorded charts.
The overflow volume at 1, 3 and 5 minutes is expressed as a percentage of maximal bronchoconstriction. Combined group values are used from each of these time intervals to determine the inhibitory effect of drugs. [formula] Students t-test for unpaired data is used to determine statistical significance. Dose response curves are generated and ED50 doses are interpolated from the regression lines.
The results for three compounds of the invention, with administration of the compounds at 10 minutes before ovalbumin challenge are presented below: […]

[2] = system: synthesis of LTB4 by rat glycogen-elicited polymorphonuclear leukocytes (lipoxygenase); assay: inhibition of LTB4 (5,12-diHETE) synthesis by rat glycogen-elicited polymorphonuclear leukocytes; format: cell-based, rat (female Wistar); settings: Leukocyte, read-out: 50% Inhibitory Concentration (IC50) LTB4; rat peritoneal PMN, A23187 10 μM, [14C]arachidonic acid, 10 min preincubation at 37° C.
Description: (§2) Roy. […] Med., 74, 831 (1981)]. […] The assay is carried out as follows: Peritoneal PMN are obtained from female Wistar rats (150-250 g) that received an i.p. injection of 6% glycogen (10 ml). After 24 hours, rats are killed by CO2 asphyxiation and peritoneal cells are harvested by peritoneal lavage using Ca^++ and Mg^++ free Hanks' balanced salt solution (HBSS). The peritoneal exudate is centrifuged at 400 g for 10 minutes. […] To 1 ml portions of cell suspension, test drugs or vehicle are added and incubated at 37° C. for 10 minutes. […] The reaction is stopped by the addition of ice cold water (3 ml) and acidifying to pH 3.5. Lipoxygenase products are then extracted twice into diethyl ether.

[3] = system: synthesis of 5-HETE by rat glycogen-elicited polymorphonuclear leukocytes (lipoxygenase); assay: inhibition of 5-HETE synthesis by rat glycogen-elicited polymorphonuclear leukocytes; format: cell-based, rat (female Wistar); settings: Leukocyte, read-out: 50% Inhibitory Concentration (IC50) 5-HETE; rat peritoneal PMN, A23187 10 μM, [14C]arachidonic acid, 10 min preincubation at 37° C.
Description: as §2

[4] = system: LTD4 induced bronchoconstriction; assay: in vivo inhibition of bronchospasm induced in guinea pigs by exogenously administered leukotriene (LTD4); design: species or system guinea pig (male Hartley); settings: 50 mg/kg intraduodenal, 10 minutes before induction of bronchospasm by LTD4
Description: The assay of this Example measures the in vivo ability of the compounds of the invention to inhibit the bronchospasm induced in guinea pigs by the exogenously administered leukotrienes C4 and/or D4. This assay is essentially a measure of the SRS-A antagonist properties of the compounds tested.
This assay is carried out as follows:
Male Hartley strain guinea pigs (350-600 g) are anesthetized with pentobarbital sodium (50 mg/kg, i.p.). The jugular vein is cannulated for injection of drugs and the carotid artery for monitoring blood pressure. The trachea is cannulated for artificial ventilation by a miniature Starling pump and for indirect measurement of respiratory volume changes as described infra. Additional pentobarbital sodium (15 mg/kg, i.v.) is administered to arrest spontaneous respiration. Submaximal bronchoconstrictor responses are established in control animals by varying the dose-levels of leukotriene. Intravenous dose-levels for LTC4 range from 1 to 2 μg/kg and for LTD4 the range is from 0.3 to 1 μg/kg. The aerosol bronchoprovocation dose for LTC4 is generated from 1.6 μM solution and for LTD4 from a 2.0 μM solution.
Test drugs are administered either intravenously, intraduodenally, by aerosol or orally at 1 or 10 minutes before induction of bronchospasm by administration of either LTC4 or LTD4 at the predetermined dose-levels. Aerosols of soluble drugs or leukotrienes are produced in-line for 10 seconds only by actuation of an ultrasonic nebulizer (Monaghan). Aerosolized drug dosage is expressed in terms of solution concentration and by a fixed aerosol exposure time (approximately 10 seconds). Control animals receive saline in place of drug.
as §1, with “at” for “at minutes”, “5 minutes” for “5”
The overflow volume at 1, 3 and 5 minutes is expressed as a percentage of maximal bronchoconstriction. […]

| Structure (SMILES) | IC50 [2] [µM] | IC50 [3] [µM] | % Inhibition Overflow Volume at 1 min. [1] [%] | % Inhibition Overflow Volume at 3 min. [1] [%] | % Inhibition Overflow Volume at 5 min. [1] [%] | % Inhibition Overflow Volume at 1 min. ([4]; 1 min.) [%] | % Inhibition Overflow Volume at 3 min. ([4]; 3 min.) [%] | % Inhibition Overflow Volume at 5 min. ([4]; 5 min.) [%] |
| --- | --- | --- | --- | --- | --- | --- | --- | --- |
| COC(=O)CC(=O)Nc1cccc(COc2ccc(C(C)=O)c(O)c2)c1 [Example 1, 3-[[3-[(4-acetyl-3-hydroxyphenoxy)methyl]phenyl]amino]-3-oxopropanoic acid, methyl ester] | 11.7 | 14.2 | 99 | 77 | 63 | 25 | 48 | 56 |
| NC1=NN(c2cccc(C(F)(F)F)c2)CC1 [BW755C, reference compound] | 30 | 43 |  |  |  |  |  |  |
| COC(=O)CCC(=O)Nc1cccc(COc2ccc(C(C)=O)c(O)c2)c1 [Example 2, 4-[[3-[(4-acetyl-3-hydroxyphenoxy)methyl]phenyl]amino]-4-oxobutanoic acid, methyl ester] |  |  | 93 | 24 | 35 |  |  |  |
| COC(=O)CC(=O)Nc1cccc(COc2ccc(C(C)=O)c(OC)c2)c1 [Example 4, 3-[[3-[(4-acetyl-3-methoxyphenoxy)methyl]phenyl]amino]-3-oxopropanoic acid, methyl ester] |  |  | 88 | 67 | 46 |  |  |  |

Continued by falling IC50 [2], values first:

| IC50 [2] [µM] | IC50 [3] [µM] | Structure (SMILES) | % Inhibition Overflow Volume at 1 min. [1] [%] | % Inhibition Overflow Volume at 3 min. [1] [%] | % Inhibition Overflow Volume at 5 min. [1] [%] | % Inhibition Overflow Volume at 1 min. ([4]; 1 min.) [%] | % Inhibition Overflow Volume at 3 min. ([4]; 3 min.) [%] | % Inhibition Overflow Volume at 5 min. ([4]; 5 min.) [%] |
| --- | --- | --- | --- | --- | --- | --- | --- | --- |
| 7.09 | 5.6 | CCc1ccc(OCc2cccc(NC(=O)CCC(=O)OC)c2)cc1OC [Example 7, 4-[[3-[(4-ethyl-3-methoxyphenoxy)methyl]phenyl]amino]-4-oxobutanoic acid, methyl ester] |  |  |  |  |  |  |
| 3.87 | 3.71 | CCCCCC(=O)c1ccc(OCc2cccc(NC(=O)CCC(=O)OC)c2)cc1OC [Example 6c, 4-[[3-[[3-methoxy-4-(1-oxohexyl)phenoxy]methyl]phenyl]amino]-4-oxobutanoicacid, methyl ester] |  |  |  |  |  |  |
| 1.7 | 1.59 | CCCCCCc1ccc(OCc2cccc(NC(=O)CC(=O)OC)c2)cc1OC [Example 8b, 3-[[3-[(4-hexyl-3-methoxyphenoxy)methyl]phenyl]amino]-3-oxopropanoic acid, methyl ester] |  |  |  |  |  |  |
